ChEMBL document CHEMBL1201862, “PubChem BioAssay data set” (2004)
Activity calls are given as the source filed them.

What was measured:
[1] = target: T1, DNA repair and recombination protein RAD54-like (Homo sapiens, UniProt Q92698); assay: RAD54 Holliday junction migration blockers – biochemical, fluorescence, cherry-picked samples, dose series, confirmation (AID 651657); assay type: functional
T1 sequence (Q92698 whole entry): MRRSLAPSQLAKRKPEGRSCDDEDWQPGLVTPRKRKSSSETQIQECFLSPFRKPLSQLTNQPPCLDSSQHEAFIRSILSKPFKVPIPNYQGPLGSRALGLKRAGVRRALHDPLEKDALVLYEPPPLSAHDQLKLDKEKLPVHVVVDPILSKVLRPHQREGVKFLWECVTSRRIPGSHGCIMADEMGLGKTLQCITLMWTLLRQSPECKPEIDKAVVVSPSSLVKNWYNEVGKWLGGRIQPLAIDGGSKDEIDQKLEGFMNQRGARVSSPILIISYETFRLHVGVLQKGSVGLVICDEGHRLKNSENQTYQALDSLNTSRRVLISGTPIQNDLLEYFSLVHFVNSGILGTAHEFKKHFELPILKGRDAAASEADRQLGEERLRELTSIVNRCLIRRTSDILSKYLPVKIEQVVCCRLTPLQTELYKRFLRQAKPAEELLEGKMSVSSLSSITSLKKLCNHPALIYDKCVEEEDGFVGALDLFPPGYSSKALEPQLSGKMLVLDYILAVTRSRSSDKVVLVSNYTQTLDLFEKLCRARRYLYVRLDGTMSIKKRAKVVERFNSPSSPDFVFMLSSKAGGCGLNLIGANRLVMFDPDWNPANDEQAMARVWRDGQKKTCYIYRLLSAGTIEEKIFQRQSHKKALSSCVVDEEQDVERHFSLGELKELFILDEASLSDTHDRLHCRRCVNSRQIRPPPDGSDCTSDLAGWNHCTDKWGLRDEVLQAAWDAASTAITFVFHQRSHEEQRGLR

[2] = target: T2, RNA-binding protein pos-1 (Caenorhabditis elegans, UniProt G5EF15); assay: disruptors of C. elegans POS-1 RNA interaction – biochemical, fluorescence polarization, dose response (AID 1964);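 also: purified POS-1 fused to maltose binding protein made in E. coli; potency of compounds blocking POS-1 binding to fluorescent RNA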
T2 sequence (G5EF15 whole entry): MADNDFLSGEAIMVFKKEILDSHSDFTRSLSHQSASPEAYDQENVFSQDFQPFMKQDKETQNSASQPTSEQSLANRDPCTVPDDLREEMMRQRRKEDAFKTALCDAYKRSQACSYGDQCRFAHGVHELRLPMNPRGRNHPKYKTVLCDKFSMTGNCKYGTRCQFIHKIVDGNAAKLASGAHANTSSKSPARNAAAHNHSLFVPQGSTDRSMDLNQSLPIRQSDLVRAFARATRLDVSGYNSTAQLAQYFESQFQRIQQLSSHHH

[3] = target: T3, Zinc finger protein mex-5 (Caenorhabditis elegans, UniProt Q9XUB2); assay: potency of MEX-5 RNA-binding blockers – biochemical, C. elegans, fluorescence polarization, dose response (AID 1960)
T3 sequence (Q9XUB2 whole entry): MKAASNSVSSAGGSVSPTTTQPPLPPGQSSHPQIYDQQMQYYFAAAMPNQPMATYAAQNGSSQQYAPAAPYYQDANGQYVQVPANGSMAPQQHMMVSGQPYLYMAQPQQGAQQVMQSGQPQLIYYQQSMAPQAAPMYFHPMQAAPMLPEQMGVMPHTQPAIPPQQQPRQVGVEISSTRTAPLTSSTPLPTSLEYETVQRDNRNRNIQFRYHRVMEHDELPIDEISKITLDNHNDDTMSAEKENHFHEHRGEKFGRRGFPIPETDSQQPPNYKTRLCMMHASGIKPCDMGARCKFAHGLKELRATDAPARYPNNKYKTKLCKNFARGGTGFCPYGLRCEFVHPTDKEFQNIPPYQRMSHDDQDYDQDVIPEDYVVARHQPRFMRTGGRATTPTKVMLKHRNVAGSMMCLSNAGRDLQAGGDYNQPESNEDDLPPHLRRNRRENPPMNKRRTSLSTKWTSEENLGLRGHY

[4] = target: T4, Endoribonuclease toxin MazF (Escherichia coli K-12, UniProt P0AE70); assay: activation of MazEF endoribonuclease cleavage – biochemical, fluorescence, single-stranded RNA substrate, uHTS hits, dose response (AID 588481); assay type: functional
T4 sequence (P0AE70 whole entry): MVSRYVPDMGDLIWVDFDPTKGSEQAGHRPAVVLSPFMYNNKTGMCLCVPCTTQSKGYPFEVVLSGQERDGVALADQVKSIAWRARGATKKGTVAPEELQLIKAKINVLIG

[5] = target: T4, Endoribonuclease toxin MazF; assay: substrate-only fluorescence increase artefacts – biochemical, single-stranded RNase substrate, counter-screen for MazEF activator project, dose response (AID 588502); assay type: functional
[6] = intracellular Trypanosoma cruzi inhibitors in host cells – cell-based, plate reader, cherry-pick samples, set 3, dose response (AID 651818); assay type: functional;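 also: compounds incubated with infected cells for about four days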
[7] = P. falciparum Dd2 growth inhibitors, dose response, SYBR Green, cherry-picked samples (AID 1159567); assay type: functional, cell-based
[8] = target: T5, Galanin receptor type 3 (Homo sapiens, UniProt O60755); assay: Fluorescence-based cell-based primary high throughput dose response assay to identify antagonists of the Galanin Receptor 3 (GalR3).; assay type: functional
T5 sequence (O60755 whole entry): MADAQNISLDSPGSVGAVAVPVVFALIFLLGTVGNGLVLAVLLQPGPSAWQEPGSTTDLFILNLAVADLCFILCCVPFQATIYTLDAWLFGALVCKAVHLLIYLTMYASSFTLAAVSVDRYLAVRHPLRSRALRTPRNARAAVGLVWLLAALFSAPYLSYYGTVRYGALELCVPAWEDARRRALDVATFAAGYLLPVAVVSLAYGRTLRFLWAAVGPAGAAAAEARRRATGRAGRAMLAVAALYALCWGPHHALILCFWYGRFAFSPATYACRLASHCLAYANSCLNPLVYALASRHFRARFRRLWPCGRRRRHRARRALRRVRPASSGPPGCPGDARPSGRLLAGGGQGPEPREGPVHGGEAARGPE

[9] = cells; assay type: functional, cell-based; details: HEK-CNG
[10] = target: Cytochrome P450 2C9 (Homo sapiens, UniProt P11712)
[11] = reduction of Shn3 3'UTR-driven luciferase in osteoblasts – cell-based, Clone20 osteoblasts, firefly luciferase, cherry-picked, dose response (AID 624132); assay type: functional;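 also: firefly luciferase luminescence from reporter carrying the Shn3 3'UTR in osteoblasts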
[12] = loss of viability in HepG2 cells – cell-based, CellTiter-Glo, cherry-picked, cytotoxicity control for Shn3 inhibitor project, dose response (AID 624134); assay type: functional
[13] = non-specific 3'UTR reporter inhibition in Clone20-Shn3RL – cell-based, Renilla luciferase, cherry-picked, counter-screen for Shn3 inhibitor project, dose response (AID 624133); assay type: functional
[14] = HIV-1 AD8 envelope cell-cell fusion blockers – cherry-pick, dose response (AID 652062); assay type: functional, cell-based;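 also: luciferase signal from cell-cell fusion driven by HIV-1 clade B AD8 Env; potency is for inhibitors of fusion seen as a drop in luminescence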
[15] = Trypanosoma cruzi growth suppression in host cells – NIH3T3 host cells, beta-gal luminescence, confirmation (AID 2044); assay type: functional, cell-based;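 also: intracellular parasites grown in NIH/3T3 mouse fibroblasts as host cells; luminescent beta-galactosidase reporter signal from transgenic T. cruzi replicating inside host cells; inhibitors lower the luminescence signal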
[16] = microbe, parasite or virus in culture; assay type: functional; details: Mycobacterium tuberculosis
[17] = NIH3T3 cell viability loss – ATP luminescence, mouse fibroblasts, counter-screen, dose response (AID 2010); assay type: functional, cell-based;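 also: cells exposed to compound for about 90 hours before reading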
[18] = target: T6, Replicative DNA helicase DnaB (Mycobacterium tuberculosis, UniProt P9WMR3); assay: DnaB intein splicing inhibitors, dose response, biochemical, cell-free fluorescence (AID 449749); assay type: functional
T6 sequence (P9WMR3 whole entry): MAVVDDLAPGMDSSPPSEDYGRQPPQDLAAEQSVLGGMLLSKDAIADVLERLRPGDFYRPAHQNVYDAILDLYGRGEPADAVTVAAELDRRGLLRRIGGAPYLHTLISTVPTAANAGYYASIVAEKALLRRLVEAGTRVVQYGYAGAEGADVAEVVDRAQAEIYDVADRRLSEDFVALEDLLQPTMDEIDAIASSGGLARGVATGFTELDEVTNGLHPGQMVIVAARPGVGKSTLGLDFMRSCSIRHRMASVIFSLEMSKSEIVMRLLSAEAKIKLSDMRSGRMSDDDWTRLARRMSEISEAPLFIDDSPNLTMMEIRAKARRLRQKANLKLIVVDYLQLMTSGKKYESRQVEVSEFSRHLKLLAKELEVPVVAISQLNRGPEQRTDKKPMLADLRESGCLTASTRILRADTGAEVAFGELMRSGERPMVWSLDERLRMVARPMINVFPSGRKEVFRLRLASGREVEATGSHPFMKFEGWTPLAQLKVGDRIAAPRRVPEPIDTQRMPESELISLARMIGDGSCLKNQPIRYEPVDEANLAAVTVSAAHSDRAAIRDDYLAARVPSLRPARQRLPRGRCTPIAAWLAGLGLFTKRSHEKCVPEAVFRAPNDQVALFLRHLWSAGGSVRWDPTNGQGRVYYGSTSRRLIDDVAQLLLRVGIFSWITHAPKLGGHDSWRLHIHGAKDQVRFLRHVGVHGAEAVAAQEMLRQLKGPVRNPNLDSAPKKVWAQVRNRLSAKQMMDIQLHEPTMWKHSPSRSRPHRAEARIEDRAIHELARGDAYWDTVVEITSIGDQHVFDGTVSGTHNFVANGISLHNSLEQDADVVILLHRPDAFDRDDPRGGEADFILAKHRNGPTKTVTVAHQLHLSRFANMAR

[19] = target: T7, Protein RecA (Mycobacterium tuberculosis, UniProt P9WHJ3); assay: Fluorescence Cell-Free Homogeneous Dose Retest to Identify Inhibitors of RecA-Intein Splicing Activity. [Related pubchem assays (depositor defined):AID2097, AID2223, AID489010, AID492950]; assay type: functional
T7 sequence (P9WHJ3 whole entry): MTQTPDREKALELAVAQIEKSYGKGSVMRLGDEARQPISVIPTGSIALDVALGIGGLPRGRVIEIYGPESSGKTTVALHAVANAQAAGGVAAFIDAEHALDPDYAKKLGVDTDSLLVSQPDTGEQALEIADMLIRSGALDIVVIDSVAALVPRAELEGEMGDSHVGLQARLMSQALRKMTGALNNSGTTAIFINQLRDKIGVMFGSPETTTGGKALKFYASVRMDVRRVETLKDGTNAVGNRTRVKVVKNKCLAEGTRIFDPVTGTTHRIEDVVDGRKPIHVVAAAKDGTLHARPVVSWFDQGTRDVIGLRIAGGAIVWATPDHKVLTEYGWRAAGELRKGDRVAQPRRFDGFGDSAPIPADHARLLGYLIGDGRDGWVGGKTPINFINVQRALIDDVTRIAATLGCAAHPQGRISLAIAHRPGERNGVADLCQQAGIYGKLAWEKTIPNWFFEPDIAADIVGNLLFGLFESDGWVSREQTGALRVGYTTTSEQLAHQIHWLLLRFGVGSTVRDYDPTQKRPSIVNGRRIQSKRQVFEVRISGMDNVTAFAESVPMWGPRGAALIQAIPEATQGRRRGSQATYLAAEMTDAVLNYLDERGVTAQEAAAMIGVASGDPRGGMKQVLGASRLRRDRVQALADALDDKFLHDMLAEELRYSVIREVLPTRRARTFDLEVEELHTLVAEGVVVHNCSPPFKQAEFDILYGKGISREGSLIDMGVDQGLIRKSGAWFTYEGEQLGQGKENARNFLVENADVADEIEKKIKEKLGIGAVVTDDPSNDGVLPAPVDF

Sequence of Cytochrome P450 2C9 (P11712 whole entry): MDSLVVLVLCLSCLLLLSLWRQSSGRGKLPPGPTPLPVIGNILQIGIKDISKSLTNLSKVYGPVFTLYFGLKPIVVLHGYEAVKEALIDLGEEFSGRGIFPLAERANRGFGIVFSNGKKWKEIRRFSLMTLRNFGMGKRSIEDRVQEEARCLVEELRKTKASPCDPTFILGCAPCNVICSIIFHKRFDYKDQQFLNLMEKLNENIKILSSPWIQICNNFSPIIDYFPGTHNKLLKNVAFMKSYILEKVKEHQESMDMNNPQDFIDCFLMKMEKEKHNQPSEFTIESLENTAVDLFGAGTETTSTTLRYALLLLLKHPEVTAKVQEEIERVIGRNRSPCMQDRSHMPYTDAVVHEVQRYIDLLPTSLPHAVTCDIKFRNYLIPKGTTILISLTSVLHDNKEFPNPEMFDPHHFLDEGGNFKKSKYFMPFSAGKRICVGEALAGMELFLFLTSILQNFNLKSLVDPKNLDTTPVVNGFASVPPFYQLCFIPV

## CN(C)CCCNc1nc(-c2ccccc2)nc2ccccc12
[1]
  AC50: 28.8 µM (active)

## CN1CCc2[nH]c3ccc(C(=O)NN)cc3c2C1
[1]
  AC50: 100 µM (inactive)

## Cc1cc(/C=C2\C(=O)NC(=O)N(Cc3ccccc3)C2=O)c(C)n1C1CC1
[2]
  EC50: > 300 µM (not active)
[3]
  EC50: > 300 µM (not active)
[4]
  EC50: > 99 µM (inactive)
[5]
  EC50: 23.4 µM (inactive)

## C[C@@H]1CN([C@H](C)CO)C(=O)c2cccc(NC(=O)Nc3cccc4ccccc34)c2O[C@@H]1CN(C)C(=O)Nc1ccc(F)cc1
[6]
  AC50: 3.81 µM (active)
[7]
  AC50: 3.76 µM (active)

## COc1ccc(S(=O)(=O)Nc2ccc3c(c2)CC(=O)N([C@@H](C)CO)C[C@H](C)[C@H](CN(C)Cc2ccc(Cl)c(Cl)c2)O3)cc1
[6]
  AC50: 5.64 µM (active)

## Cc1cccn2c(=O)c3cc(C#N)c(=O)n(CCCN4CCOCC4)c3nc12
[1]
  AC50: 48.9 µM (active)

## Nc1nn2c(O)c3c(nc2c1N=Nc1ccccc1)CCCC3
[8]
  IC50: 3.7 µM (active)
[9]
  EC50: > 29.9 µM (inactive)
[10]
  AC50: 8.91 µM (inconclusive)

## COc1ccc(CNC(=O)C(C#N)c2nc3ccccc3nc2N2CCCC2)cc1 (stereo not drawn)
[4]
  EC50: 9.99 µM (active)
[5]
  EC50: 14.5 µM (active)

## Cc1ccc(S(=O)(=O)Nc2cccc3c2O[C@@H](CN(C)Cc2ccc(C(=O)Nc4ccccc4N)cc2)[C@@H](C)CN([C@H](C)CO)C3=O)cc1
[6]
  AC50: 5.8 µM (active)

## COc1ccc(-c2cn(-c3ccc(C)c(Cl)c3)c(S)n2)cc1OC
[8]
  IC50: > 29.9 µM (inactive)
[9]
  EC50: > 29.9 µM (inactive)

## C=CCNc1nc2c(c(=O)n(C)c(=O)n2C)n1CCCCCC
[11]
  AC50: 0.761 µM (active)
[12]
  AC50: 2.6 µM (active)
[13]
  AC50: 1.18 µM (active)
[8]
  IC50: 1.95 µM (active)
[9]
  EC50: > 29.9 µM (inactive)
[14]
  AC50: 7.74 µM (active)

## COc1ccc(Nc2nc(N3CCCCC3)nc3ccccc23)c(OC)c1
[15]
  EC50: 0.578 µM (active)
[16]
  CC50: > 40 µM (active)
[17]
  EC50: > 60 µM (inconclusive)
[18]
  AC50: 280 µM (active)
[19]
  EC50: 114 µM (active)
[1]
  AC50: 62.2 µM (active)

## Cc1ccc(S(=O)(=O)Nc2ccc3c(c2)CC(=O)N([C@@H](C)CO)C[C@@H](C)[C@@H](CN(C)Cc2ccc(C(=O)Nc4ccccc4N)cc2)O3)cc1
[6]
  AC50: 2.94 µM (active)

## Cc1cccc2cc3c(N)c(C(=O)N4CCc5ccccc54)sc3nc12
[4]
  EC50: > 99 µM (inactive)
[5]
  EC50: 43.4 µM (inactive)
